The values below come from ChEMBL document CHEMBL3397011, “A novel molecule with notable activity against multi-drug resistant tuberculosis” (Bioorg Med Chem Lett, 2015).

Molecules are shown by their SMILES. ≈ marks a conversion by molar mass, not a printed value. Calls of active or inactive are those of the source. The calls are words filed in the database; no cut-off is given here.

Type in all cases: functional
Assay [1] deals with Mycobacterium tuberculosis. The experiment in a line: Antimicrobial activity against isoniazid and rifampin resistant Mycobacterium tuberculosis after 21 days at 37 degC by agar dilution drug susceptibility assay. Background: In agar dilution the substance is mixed into plates at graded concentrations.
The subject of assay [2] is Mycobacterium tuberculosis. The experiment in a line: Antimicrobial activity against isoniazid and rifampin resistant Mycobacterium tuberculosis assessed as reduction in colony forming unit after 21 days at 37 degC in presence of 1-(4-(4-(1H-pyrrol-1-yl)phenyl)piperazin-1-yl)-4-(5-(3,5-difluorobenzyl)-1-(2-fluorobenzyl)-2-oxo-1,2-dihydropyridin-3-yl)-2-hydroxybut-2-ene-1,4-dione by agar dilution drug susceptibility assay. On the set-up: scale not given: the % may be the effect or the level left.

Assay [3] relates to Mycobacterium tuberculosis. The experiment in a line: Antimicrobial activity against isoniazid and rifampin resistant Mycobacterium tuberculosis assessed as ratio of MIC combination/MIC compound alone after 21 days at 37 degC in presence of 1-(4-(4-(1H-pyrrol-1-yl)phenyl)piperazin-1-yl)-4-(5-(3,5-difluorobenzyl)-1-(2-fluorobenzyl)-2-oxo-1,2-dihydropyridin-3-yl)-2-hydroxybut-2-ene-1,4-dione by agar dilution drug susceptibility assay.

For assay [4], the system named is Mycobacterium tuberculosis. The experiment in a line: Antimicrobial activity against isoniazid and rifampin resistant Mycobacterium tuberculosis after 21 days at 37 degC in presence of 1-(4-(4-(1H-pyrrol-1-yl)phenyl)piperazin-1-yl)-4-(5-(3,5-difluorobenzyl)-1-(2-fluorobenzyl)-2-oxo-1,2-dihydropyridin-3-yl)-2-hydroxybut-2-ene-1,4-dione by agar dilution drug susceptibility assay.

In assay [5] the test system is Mycobacterium tuberculosis. The experiment in a line: Antimicrobial activity against isoniazid and rifampin resistant Mycobacterium tuberculosis assessed as ratio of MIC combination/MIC compound alone after 21 days at 37 degC in presence of PA-824 by agar dilution drug susceptibility assay.
The subject of assay [6] is Mycobacterium tuberculosis. The experiment in a line: Antimicrobial activity against isoniazid and rifampin resistant Mycobacterium tuberculosis after 21 days at 37 degC in presence of PA-824 by agar dilution drug susceptibility assay. Conditions: 504 h.
For assay [7], the system named is Mycobacterium tuberculosis. The experiment in a line: Antimicrobial activity against isoniazid and rifampin resistant Mycobacterium tuberculosis assessed as reduction in colony forming unit after 21 days at 37 degC in presence of PA-824 by agar dilution drug susceptibility assay. On the set-up: scale not given: the % may be the effect or the level left.

As a reminder, the MIC is the lowest concentration that inhibits growth of the organism. On to `O=C(/C=C(\O)C(=O)N1CCN(c2ccc(-n3cccc3)cc2)CC1)c1cc(Cc2ccccc2)cn(Cc2ccccc2)c1=O`, for which the MIC in assay [1] (504 h) is 3.12 µg/mL (≈ 5.22 µM).
As for `O=[N+]([O-])c1cn2c(n1)OC[C@@H](OCc1ccc(OC(F)(F)F)cc1)C2` [PRETOMANID], in assay [2], the Activity is reported as over 99%. In addition, the MIC amounted to 0.126 µg/mL (≈ 0.351 µM) in assay [1] (504 h) and 0.031 µg/mL in assay [4]. For the same molecule, the “fractional inhibitory concentration index (FICI)” value in assay [3] is 0.246.
Turning to `O=C(/C=C(\O)C(=O)N1CCN(c2ccc(-n3cccc3)cc2)CC1)c1cc(Cc2cc(F)cc(F)c2)cn(Cc2ccccc2F)c1=O`, the “fractional inhibitory concentration index (FICI)” value in assay [5] worked out at 0.125. In addition, the MIC in assay [1] (504 h) amounted to 1.56 µg/mL (≈ 2.39 µM); in assay [6] it was 0.195 µg/mL. The Activity in assay [7] is reported as over 99%.
Molecule `O=C(/C=C(\O)C(=O)N1CCN(c2ccc(-n3ccnc3)cc2)CC1)c1cc(Cc2cc(F)cc(F)c2)cn(Cc2ccccc2F)c1=O` registered an MIC in assay [1] (504 h) of 6.25 µg/mL (≈ 9.56 µM).
The same measure, in the same setting: for `O=C(/C=C(\O)C(=O)N1CCN(c2ccc(-n3cccn3)cc2)CC1)c1cc(Cc2cc(F)cc(F)c2)cn(Cc2ccccc2F)c1=O` the value was 3.12 µg/mL (≈ 4.78 µM).
As to `CN[C@@H]1[C@H](O[C@H]2[C@H](O[C@H]3[C@H](O)[C@@H](O)[C@H](N=C(N)N)[C@@H](O)[C@@H]3N=C(N)N)O[C@@H](C)[C@]2(O)C=O)O[C@@H](CO)[C@H](O)[C@H]1O`, the MIC result in assay [1] is “Active”.
